Common to all, as to experiment: DTP human tumour cell line panel, 48 h
Assay [1] has as its system BT-549 breast.
Assay [2] concerns CCRF-CEM leukemia.
Assay [3] relates to DU-145 prostate.
Assay [4] relates to EKVX NSCLC.
Assay [5] relates to HT29 colon.
Assay [6] deals with NCI-H226 lung.
In assay [7] the test system is OVCAR-8 ovarian.
Assay [8] has as its system SF-295 CNS.
In assay [9] the test system is SK-MEL-5 melanoma.
For assay [10], the system named is COLO 205 colon.

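In this assay, cells in 96-well plates receive the compound at five concentrations for 48 hours. Endpoints are linearly interpolated between the surrounding concentrations. GI50 = concentration required for 50% inhibition of growth. TGI: concentration producing complete growth inhibition.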 A value given as a limit tells only on which side of the number the result lay.

For the compound `COc1cc(-c2nn(-c3cccc(NC(=O)CCNc4ccc(N5CCOCC5)cc4)c3)cc2-c2ccncc2)ccc1Cl`, the GI50 was 3.41 µM in assay [1]; 2.95 µM in [2]; 4.04 µM in assay [3]; 3.07 µM in assay [4]; 2.84 µM in [5]; 2.89 µM in [6]. Further, the GI50 in assay [7] is 2.92 µM; in [8], 2.09 µM; in assay [9] it was 1.95 µM. The TGI in assay [1] is 31 µM; in [2], over 100 µM; in assay [3], over 100 µM; in assay [4] it was over 100 µM; in [5] it was 33.4 µM; in assay [6], 27.8 µM. In addition, the TGI is 16.1 µM in assay [7], 26 µM in assay [8] and 4.89 µM in assay [9].
`COc1cc(/C=C2\SC(N3CCCCC3)=NC2=O)ccc1OCCCCCCOc1ccc(/C=C2\SC(N3CCCCC3)=NC2=O)cc1OC`: the GI50 in assay [1] is 4.29 µM; in [10], 19.9 µM; in assay [3], 5.26 µM; in [4], 12 µM; in assay [5] it was 8.38 µM; in assay [6] it was 5.18 µM. Also, the GI50 in assay [7] was 4.95 µM; in assay [8], 13.7 µM; in assay [9], 9.35 µM. The TGI was 22.8 µM in [1]; over 100 µM in assay [10]; 17.6 µM in [3]; 76.6 µM in assay [4]; 30.4 µM in [5]; 22 µM in [6]. Also, the values for the TGI in [7], in assay [8] and in [9] were 31.1 µM, 47.5 µM and 28.2 µM, respectively.
For the compound `CCOc1ccc2cc(-c3nn(CC4CCNCC4)c4ncnc(N)c34)ccc2c1`, the GI50 is 13.4 µM in assay [1]; 13.9 µM in assay [2]; 12.2 µM in assay [10]; 19.1 µM in [3]; 22.5 µM in [4]; 10.9 µM in assay [5]. Moreover, the GI50 was 10 µM in assay [6], 14.8 µM in assay [8] and 16.4 µM in assay [9]. Also, the TGI in assay [1] was 27.6 µM; in [2], 34.2 µM; in assay [10] it was 27 µM; in [3], 55.6 µM; in assay [4] it was over 100 µM; in assay [5], 32 µM. For the same compound, the results for the TGI in assay [6], in assay [8] and in assay [9] were 33.4 µM, 29.5 µM and 29.9 µM, respectively.
For `COc1cc(-c2nn(-c3cccc(NC(=O)CCN4CCN(c5ccccc5)CC4)c3)cc2-c2ccncc2)ccc1Cl`, the GI50 is 3.17 µM in assay [1]; 3.38 µM in assay [2]; 4.35 µM in [3]; 3.31 µM in [4]; 2.66 µM in [5]; 4.13 µM in assay [6]. Besides, the GI50 is 4.5 µM in assay [7], 2.41 µM in assay [8] and 2.19 µM in assay [9]. The TGI in assay [1], in assay [2], in [3], in [4], in [5] and in [6] was over 100 µM in each case. Moreover, the TGI in [7] is over 100 µM; in assay [8] it was 18 µM; in assay [9], 5.36 µM.
As for `Nc1ccccc1C#Cc1ccccc1C#Cc1cccs1`, the GI50 in [1] was 15.9 µM; in assay [2], 19.9 µM; in assay [3] it was 20.6 µM; in assay [4] it was 18 µM; in assay [5], 19.4 µM; in assay [6], 17.7 µM. Further, the GI50 in assay [7] was 42.7 µM; in assay [8], 16.1 µM; in [9] it was 7.59 µM. Also, the total growth inhibition concentration (TGI) stood at 32.1 µM in assay [1]; 70.1 µM in assay [2]; 48 µM in [3]; 48.5 µM in assay [4]; 49 µM in assay [5]; 43.3 µM in assay [6]. Besides, the TGI was over 100 µM in assay [7], 37.3 µM in assay [8] and 22.3 µM in [9].
Turning to `Clc1ccc(CN2CCCN(Cc3ccc(Cl)cc3)C2c2cc3ccccc3c3ccccc23)cc1`, the TGI in assay [1] is over 100 µM; in assay [10], 40.3 µM; in assay [3] it was over 100 µM; in assay [4], over 100 µM; in assay [5], over 100 µM; in [6], over 100 µM. Also, the total growth inhibition concentration (TGI) in assay [7] was over 100 µM; in assay [8] it was over 100 µM; in [9], 32.7 µM.
With `OCCN(CO)CO`, the TGI in [1], in assay [10], in assay [3], in assay [4], in [5] and in assay [6] was over 100 µM each time. Moreover, the TGI in [7], in assay [8] and in assay [9] was over 100 µM each time.
As for `COc1cc(N(C)C)c(OC)cc1C=C1C=CC=C1`, the TGI in assay [1], in assay [2], in [3], in assay [4], in assay [5] and in assay [6] was over 100 µM throughout. Moreover, the TGI in [7], in assay [8] and in [9] was over 100 µM throughout.
On to `CCOC1Oc2ccc(C)cc2C(=O)/C1=C\Nc1ccc(S(N)(=O)=O)cc1` (configuration not stated), for which the GI50 in [1] is 10.1 µM; in assay [10] it was 16.8 µM; in assay [3] it was 12.9 µM; in assay [4], 9.43 µM; in [5], 15.6 µM; in assay [6], 22.3 µM. For the same compound, the GI50 in assay [7] was 9.97 µM; in assay [8] it was 12.6 µM; in assay [9], 7.79 µM. The TGI in [1] is 35.2 µM; in [10], 45.3 µM; in [3] it was 35.7 µM; in [4], 31.4 µM; in assay [5], over 50 µM; in assay [6] it was over 50 µM. The figures for the total growth inhibition concentration (TGI) in assay [7], in assay [8] and in assay [9] were 27.7 µM, 35.7 µM and 17.3 µM, respectively.
Turning to `CN(C)c1ccc(C(O)C2=CC(=O)c3ccccc3C2=O)cc1` (configuration not stated), the GI50 was 2.58 µM in [1]; 2.23 µM in [3]; 5.37 µM in assay [4]; 3.01 µM in [6]; 11.6 µM in assay [7]; 25.1 µM in assay [8]. Besides, the TGI amounted to 6.25 µM in assay [1]; 6.27 µM in assay [3]; 92.9 µM in assay [4]; 14.2 µM in [6]; 32.8 µM in [7]; 93.3 µM in assay [8].

The term GI50 denotes the concentration at which growth is held to half of that of the control. Usually TGI stands for the concentration giving total growth inhibition. Lower therefore signals more potent growth arrest.

Values taken from PubChem BioAssay (NCI).
